± gives the expanded uncertainty stated by the source.
Legend:
[1] = Molar enthalpy of transition or fusion; details: Crystal 1; DSC
[2] = Crystal 1; DSC

- Molar enthalpy of transition or fusion [1]: 3.94 ± 0.717 kcal/mol
- Triple point temperature [2]: 393.93 ± 4.1 K
Structure (SMILES): O=C1Cc2ccccc2N1 [indolin-2-one]
